# Columns and labels:
# primary T cell 2 = test: Sister chromatid exchange (SCE) assay, BrdU differential staining; assay type: cell-based, human; details: 1 μM, 70 hr
# Text: (§1) Human mammary epithelial cell lines used included non-tumorigenic diploid MCF-10A, HMEC-hTERT and tumorigenic MDA-MB-468 (basal) and MCF-7 (luminal). […] Blood samples were obtained from normal donor participants. The participants provided written informed consent to IRB protocol #95–054 approved by the Institutional Review Board at MSKCC. The original signed consent is then sent to the research participant’s medical record and a copy of the consent is given to the participant. The EBV-transformed B-lymphocyte cell line (EBV-BL) was generated by transformation of peripheral blood mononuclear cells (PBMC) with the B95.8 strain of EBV, as previously described. Primary T cells were generated from PBMC from two normal donors by non-specific activation with phytohemagglutinin and cultured in RPMI1640 and human serum AB for 4–14 days before use. E14 mES cell line was provided by M. Hooper, Brca1^-/- 236.44 mES cell line was provided by B. H. Koller, Brca2^lex1/lex2 mES cell line was provided by P. Hasty and Lexicon Genetics. E14 wild-type, Brca1^-/- 236.44, and Brca2^lex1/lex2 mES cell lines were cultured in standard ES media. Brca1^-/- 236.44 cells express a BRCA1 peptide deleted for sequences encoded by exon 11 [52], while Brca2^lex1/lex2 cells express a BRCA2 peptide deleted for the terminal exon 27 [53]. Olaparib was synthesized in the MSKCC Organic chemistry core facility. Veliparib and BSI-201 were purchased from Chemie Tek. The compounds were dissolved in DMSO and PBS. For clonogenic survival assays, MCF-10A (1000 cells), HMEC-hTERT (1000 cells), MDA-MB-468 (1500 cells) and mouse ES cell (2000 cells) were seeded, vehicle control or inhibitors were added at the indicated concentration 24 hours after seeding and changed every three days for continuous treatment. At 7–14 days, colonies were fixed with methanol and stained with Giemsa. For EBV-BL (6 × 10^6) and primary T cells (3.6 × 10^6) were continuously exposed to the indicated concentration of drug for 10 days at 0.6 × 10^6 cells/ml. Viable cells were scored by trypan blue exclusion.
# (§2) To prepare metaphase spreads, exponentially growing cells were treated with 0.1–0.3 μg/ml of colcemid for 1–6 hr. Cells were collected and incubated in hypotonic solution (0.56% KCl), fixed in methanol: acetic acid (3:1), spotted to slides and air-dried. To measure chromosomal aberrations, the slides were stained with 2% Giemsa/Sorensen’s buffer. To visualize SCEs, the doubling time for each cell type was determined. Cells were incubated with 10 μM BrdU for two cell cycles. After metaphase spreads were prepared, the slides were treated with 0.5 μg/ml Hoechst 33258. The slides were exposed to black light for 20–60 min, incubated at 60°C for 2 hr, and stained in 4–10% Giemsa/Sorensen’s buffer.
# MCF-10A = test: as above; assay type: cell-based, human
# Text: as §1, §2
# MDA-MB-468 [1] = test: as above; assay type: cell-based, human; details: 1 μM, 40 hr
# Text: as §1, §2
# EBV-BL [2] = test: as above; assay type: cell-based, human
# Text: as §1, §2
# HMEC-hTERT [3] = test: as above; assay type: cell-based, human; details: 1 μM, 30.5 hr
# Text: as §1, §2
# MCF-7 = test: as above; assay type: cell-based, human; details: 1 μM, 66.5 hr
# Text: as §1, §2
# primary T cell 1 = test: as above; assay type: cell-based, human; details: 1 μM, 99 hr
# Text: as §1, §2
# WT E14 mES cells = test: Clonogenic survival assay, mES cells; assay type: cell-based; details: Mus musculus, read-out: IC50 (clonogenic survival)
# Text: as §1, with “Olaparib was synthesized in the MSKCC Organic chemistry core facility.” left out
# [4] = system: repair-proficient human cells; test: SCE assay, summary over the human cell types; assay type: cell-based; details: primary T cells; brief exposure
# Text: (§3) Human mammary epithelial cell lines used included non-tumorigenic diploid MCF-10A, HMEC-hTERT and tumorigenic MDA-MB-468 (basal) and MCF-7 (luminal). […] Blood samples were obtained from normal donor participants. The participants provided written informed consent to IRB protocol #95–054 approved by the Institutional Review Board at MSKCC. The original signed consent is then sent to the research participant’s medical record and a copy of the consent is given to the participant. The EBV-transformed B-lymphocyte cell line (EBV-BL) was generated by transformation of peripheral blood mononuclear cells (PBMC) with the B95.8 strain of EBV, as previously described. Primary T cells were generated from PBMC from two normal donors by non-specific activation with phytohemagglutinin and cultured in RPMI1640 and human serum AB for 4–14 days before use. E14 mES cell line was provided by M. Hooper, Brca1^-/- 236.44 mES cell line was provided by B. H. Koller, Brca2^lex1/lex2 mES cell line was provided by P. Hasty and Lexicon Genetics. E14 wild-type, Brca1^-/- 236.44, and Brca2^lex1/lex2 mES cell lines were cultured in standard ES media. […] Viable cells were scored by trypan blue exclusion.
# To prepare metaphase spreads, exponentially growing cells were treated with 0.1–0.3 μg/ml of colcemid for 1–6 hr. […] To visualize SCEs, the doubling time for each cell type was determined. […]
# MDA-MB-468 [5] = test: Clonogenic survival assay; assay type: cell-based; details: Homo sapiens, read-out: IC50 of olaparib, continuous exposure
# Text: as §3, with “media. Brca1^-/- 236.44 cells express a BRCA1 peptide deleted for sequences encoded by exon 11 [52], while Brca2^lex1/lex2 cells express a BRCA2 peptide deleted for the terminal exon 27 [53].” for “media.”
# HMEC-hTERT [6] = test: Clonogenic survival assay; assay type: cell-based; details: Homo sapiens, read-out: IC50 of olaparib, continuous exposure
# Text: as §3, with “media. Brca1^-/- 236.44 cells express a BRCA1 peptide deleted for sequences encoded by exon 11 [52], while Brca2^lex1/lex2 cells express a BRCA2 peptide deleted for the terminal exon 27 [53].” for “media.”
# [7] = patients on the olaparib-treated arm, prior cytotoxic chemotherapy; cited from earlier work
# EBV-BL [8] = test: Survival, trypan blue exclusion test of cell viability; assay type: cell-based, human
# Text: as §1, with “Olaparib was synthesized in the MSKCC Organic chemistry core facility.” left out
# [9] = system: repair-proficient human cells; test: Chromatid-type aberrations, summary over the human cell types; assay type: cell-based
# Procedure: as §2
smiles,measurement,setting,value
O=C(c1cc(Cc2n[nH]c(=O)c3ccccc23)ccc1F)N1CCN(C(=O)C2CC2)CC1 [olaparib],Mean no. SCE / chromosome ± SD,primary T cell 2,0.94 ± 0.21
same,Mean no. SCE / metaphase ± SD,primary T cell 2,43.0 ± 9.7
same,Mean no. SCE / metaphase ± SD,MCF-10A; 0.1 μM,33.0 ± 4.9
same,Mean no. SCE / metaphase ± SD,MCF-10A; 0.5 μM,52.2 ± 9.8
same,Mean no. SCE / chromosome ± SD,"MCF-10A; 1 μM, 30 hr",1.57 ± 0.24
same,Mean no. SCE / metaphase ± SD,"MCF-10A; 1 μM, 30 hr",73.5 ± 10.9
same,Mean no. SCE / chromosome ± SD,MDA-MB-468 [1],1.97 ± 0.38
same,Mean no. SCE / metaphase ± SD,MDA-MB-468 [1],107.9 ± 21.0
same,Mean no. SCE / metaphase ± SD,EBV-BL [2]; 0.1 μM,26.0 ± 6.4
same,Mean no. SCE / metaphase ± SD,EBV-BL [2]; 0.5 μM,36.2 ± 7.4
same,Mean no. SCE / chromosome ± SD,"EBV-BL [2]; 1 μM, 87 hr",1.13 ± 0.23
same,Mean no. SCE / metaphase ± SD,"EBV-BL [2]; 1 μM, 87 hr",51.6 ± 10.6
same,Mean no. SCE / chromosome ± SD,HMEC-hTERT [3],1.30 ± 0.22
same,Mean no. SCE / metaphase ± SD,HMEC-hTERT [3],59.7 ± 10.0
same,Mean no. SCE / metaphase ± SD,MCF-7,152.4 ± 21.9
same,Mean no. SCE / chromosome ± SD,primary T cell 1,0.90 ± 0.20
same,Mean no. SCE / metaphase ± SD,primary T cell 1,41.3 ± 9.3
same,IC50,WT E14 mES cells,600 nM
same,average SCEs per metaphase,[4],~ 40
same,IC50,MDA-MB-468 [5],600 nM
same,IC50,HMEC-hTERT [6],5500 nM
same,incidence of myelodysplastic syndrome and acute myelogenous leukemia,[7],2.2%
same,survival (mean ± SD),"EBV-BL [8]; EBV-BL, 1 μM",92.6 ± 7.4%
same,IC50,"EBV-BL [8]; Homo sapiens, 240 h, read-out: IC50 (cell survival), EBV-BL, continuous exposure 10 days, trypan blue exclusion",3600 nM
same,increase of chromatid aberrations,[9]; clinically relevant doses (abstract),2-6 fold
same,radial chromosomes identified,"[9]; olaparib-treated cells, all cell types (1 in untreated)",12

# Source: article PMC4948780, “PARP Inhibitors in Clinical Use Induce Genomic Instability in Normal Human Cells” (PLoS ONE, 2016)
